Source: publication PMC11510023, “A Novel Cold-Adapted Nitronate Monooxygenase from Psychrobacter sp. ANT206: Identification, Characterization and Degradation of 2-Nitropropane at Low Temperature” (Microorganisms, 2024)

System: T1, rPsNMO
T1 construct: gene psnmo; N-terminal His-tag, pET28a(+), E. coli BL21(DE3)
Experiment: nitrite release, colorimetric at […] nm; Lineweaver-Burk
Assay type: biochemical, Psychrobacter sp. ANT206
Conditions: 30 °C, pH 7.5 potassium phosphate, 6-12 mM 2-NP; substrate pre-equilibrated 24 h with equal KOH to give the anionic form (propane-2-nitronate)

For 2-NP, the Km was 10.3 mM.
